These results are taken from paper PMC7828447, “Design, Synthesis and Biological Evaluation of Arylpyridin-2-yl Guanidine Derivatives and Cyclic Mimetics as Novel MSK1 Inhibitors. An Application in an Asthma Model” (Molecules, 2021).

Counter-ions that a name gives are not always drawn. Like-named read-outs stand apart in the source and are kept apart here. Where only a bound is given, the exact number is not on record here.

Data set [1] concerns the target T1, human synthetic MSK1 (14-438-K, Millipore) (Homo sapiens, UniProt O75582).
T1 construct: purchased Millipore 14-438-K
The data set is described as follows: MSK1 enzymatic inhibition assay (Kinase-Glo luminescence). The format is biochemical. The following applies: for inhibition at 1 µM: compound at 1 µM, read-out: MSK1 % Inhibition 1 µM; for inhibition at 1 µM / inhibition at 10 µM / IC50: ± Standard Deviation (n = 4); for inhibition at 10 µM: compound at 10 µM, read-out: MSK1 % Inhibition 10 µM; for IC50: 8 concentrations 0.03-100 µM, read-out: MSK1 IC50; for MSK1 inhibitory activity (in words): tested at 1 and 10 µM. How it is done:
All results are summarized in Table 1, Table 2, Table 3, Table 4 and Table 5 and on Figure 4. […]
An orthogonal luminescence-based assay Kinase-Glo® (Promega, Madison, WI, USA) was used to validate the hits, quantifying the amount of the remaining ATP in the solution following the kinase reaction. Enzymatic reactions were performed up to 4h at room temperature in presence of 3 µM ATP. All compounds were tested in quadruplicates at 1 µM and 10 µM. […] Luminescence was measured with EnVision Plate Reader (Perkin Elmer).
In general terms: Kinase-Glo reads ATP consumption through a luciferase reaction.

The nature of data set [2]: WST-1 cytotoxicity test (cell viability). The following applies: human, human pulmonary (lung) fibroblasts. In general terms: Formazan colour is commonly taken as a measure of viable cells.
Experimental: (§1) A WST1 (Roche) reagent assay was used to determine the cytotoxicity of compounds at 24 h of incubation. […] The absorbance was measured at 450 nm.
The subject of data set [3] is human pulmonary fibroblasts. Description: WST-1 cytotoxicity test (cell viability). The following applies: for cytotoxicity (in words): WST-1, concentrations up to 30 µM; for cytotoxicity at 30 µM (in words): compound at 30 µM.
Experimental: as §1
For another data set, the system named is IL-6 production. Description: Inhibition of IL-6 production (ELISA) in IL-1β-stimulated primary human lung fibroblasts. The following applies: for inhibition at 10 µM: read-out: Il-6 % Inhibition 10 µM; for inhibition at 30 µM: read-out: Il-6 % Inhibition 30 µM; for IC50: 0.3-30 µM, n = 4.
Setting [4] is: Homo sapiens, Fibroblast, read-out: Il-6 IC50 (µM), IL-1β stimulation.

T1 sequence (O75582 whole entry): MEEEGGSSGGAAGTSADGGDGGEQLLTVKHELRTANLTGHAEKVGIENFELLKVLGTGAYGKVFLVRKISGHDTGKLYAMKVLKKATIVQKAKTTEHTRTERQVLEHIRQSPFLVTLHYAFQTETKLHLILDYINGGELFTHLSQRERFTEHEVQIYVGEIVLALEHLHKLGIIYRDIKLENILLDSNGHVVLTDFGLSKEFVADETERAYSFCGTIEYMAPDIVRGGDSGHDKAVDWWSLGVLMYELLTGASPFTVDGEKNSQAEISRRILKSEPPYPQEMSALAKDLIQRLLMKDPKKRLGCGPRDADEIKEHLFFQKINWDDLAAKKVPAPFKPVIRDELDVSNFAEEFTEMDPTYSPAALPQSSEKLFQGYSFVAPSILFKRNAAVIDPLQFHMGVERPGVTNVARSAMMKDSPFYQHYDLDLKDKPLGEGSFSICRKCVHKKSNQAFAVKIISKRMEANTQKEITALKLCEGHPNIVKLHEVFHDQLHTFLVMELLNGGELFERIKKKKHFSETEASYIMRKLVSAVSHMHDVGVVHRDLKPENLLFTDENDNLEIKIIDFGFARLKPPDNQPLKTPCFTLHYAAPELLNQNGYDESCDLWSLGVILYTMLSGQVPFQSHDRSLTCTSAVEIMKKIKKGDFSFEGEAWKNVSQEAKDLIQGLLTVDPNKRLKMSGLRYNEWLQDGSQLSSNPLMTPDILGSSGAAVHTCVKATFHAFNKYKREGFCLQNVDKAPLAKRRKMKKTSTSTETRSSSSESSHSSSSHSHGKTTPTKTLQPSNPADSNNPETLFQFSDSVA
Experimental for IL-6 production: Primary human lung fibroblasts were cultured in DMEM/F-12 medium (Gibco Waltham, MA, USA) complemented with 10% fetal bovine serum (Gibco), penicillin (50 U/mL, Gibco), streptomycin (50 µg/mL, Gibco), L-glutamine (2 mM, Gibco), non-essential amino acids (0.1 mM, Gibco) and insulin (0.12 U/mL, Lilly, Indianapolis, IN, USA) Cells were used at passage 7.

In general, inhibition refers to the relative decrease from the control value, in per cent. Broadly, the IC50 is the point on the concentration scale where inhibition reaches its midpoint. A word on the viability: it is a read-out of living cells in per cent, often relative to untreated cells. Turning to `N=C(N)Nc1cccc(-c2ccccc2F)n1` [Compound 1j, 1-[6-(2-Fluorophenyl)pyridin-2-yl] guanidiniumtrifluoroacetate], in data set [1], the inhibition at 1 µM was found to be 6 ± 3%, the inhibition at 10 µM worked out at 45 ± 9% and the IC50 turned out to be 5 ± 0.5 µM. In addition, in data set [2], the viability at 24 h, 10 µM was found to be 100 ± 8% and the viability at 24 h, 30 µM is 41 ± 9%. Besides, in data set [3], the “cytotoxicity (in words)” value is “cytotoxic” and the “cytotoxicity at 30 µM (in words)” value is “cytotoxic”. Also, the inhibition at 10 µM in the data set on IL-6 production (Homo sapiens, Fibroblast) is 42 ± 4%.
In general, melting point refers to the temperature of the solid-liquid transition. As for `Br.NC1=Nc2cccc(-c3ccccc3Cl)c2CN1` [Compound 37f, 5-(2-Chlorophenyl)-3,4-dihydroquinazolin-2-amine Hydrobromide], the melting point fell in the range of 178 to 179 °C. For the same compound, in data set [1], the inhibition at 1 µM is 0%, the inhibition at 10 µM amounted to 38 ± 4% and the IC50 is 16.4 ± 4 µM. In addition, in data set [2], the viability at 24 h, 10 µM is 100 ± 8% and the viability at 24 h, 30 µM turned out to be 41 ± 9%. For the same compound, the “cytotoxicity at 30 µM (in words)” value in data set [3] is listed as “cytotoxic”. Further, the inhibition at 10 µM in the data set with IL-6 production (Homo sapiens, Fibroblast) stood at 17 ± 5%.
On to `N=C(N)Nc1cccc(-c2ccc(C(F)(F)F)cc2)n1.O=C(O)C(F)(F)F` [Compound 1c, 1-[6-(4-Trifluoromethylphenyl)pyridin-2-yl] guanidinium trifluoroacetate], for which the melting point lay within 248 to 249 °C. For the same compound, in data set [1], the inhibition at 1 µM is -6 ± 2%, the inhibition at 10 µM is -1 ± 5% and the “MSK1 inhibitory activity (in words)” value was “inactive”.
`Br.NC1=Nc2cccc(-c3ccc(Cl)cc3)c2CN1` [Compound 37b, 5-(4-Chlorophenyl)-3,4-dihydroquinazolin-2-amine Hydrobromide] showed a melting point of 196 to 197 °C. In addition, in data set [1], the inhibition at 1 µM was -9 ± 2% and the inhibition at 10 µM was 0%.
`O=S(=O)(NCCNC/C=C/c1ccc(Br)cc1)c1cccc2cnccc12` [Compound H89, H89, reference compound]: in data set [1], the inhibition at 1 µM was found to be 80 ± 8%, the inhibition at 10 µM was 93 ± 10% and the concentration for half-maximal inhibition (IC50) was found to be 0.25 ± 0.06 µM. In the data set on IL-6 production (Homo sapiens, Fibroblast), the inhibition at 10 µM is 38 ± 5% and the inhibition at 30 µM is 96 ± 1%. Also, the half-maximal inhibitory concentration (IC50) in the data set with IL-6 production (setting [4]) is 10.5 ± 5.1 µM.
With `O=S(=O)(c1cccc2cnccc12)N1CCCNCC1` [Fasudil, fasudil, reference compound], in data set [1], the inhibition at 1 µM came to 50 ± 10% and the inhibition at 10 µM turned out to be 82 ± 10%. Besides, in the data set on IL-6 production (Homo sapiens, Fibroblast), the inhibition at 10 µM worked out at 38 ± 6% and the inhibition at 30 µM turned out to be 81 ± 6%. Moreover, in the data set with IL-6 production (setting [4]), the IC50 turned out to be 8.5 ± 5.1 µM.
As for `N=C(N)Nc1cccc(-c2ccoc2)n1.O=C(O)C(F)(F)F` [Compound 1g, 1-[6-(Furan-3-yl)pyridin-2-yl] guanidinium trifluoroacetate], the melting point was in the range of 219 to 221 °C. For the same compound, in data set [1], the inhibition at 10 µM turned out to be 33 ± 8% and the IC50 is over 30 µM.
`N=C(N)Nc1cccc(-c2cc3ccccc3o2)n1.O=C(O)C(F)(F)F` [Compound 1h, 1-[6-(1-Benzofuran-2-yl)pyridin-2-yl] guanidinium trifluoroacetate]: the melting point was in the range of 269 to 270 °C. Also, in data set [1], the inhibition at 10 µM was 1 ± 6% and the “MSK1 inhibitory activity (in words)” value is “totally inactive”.
In the case of `c1ccc(NC2=Nc3cccc(-c4ccccc4)c3CN2)cc1` [Compound 60b], the melting point was 77 to 82 °C. In addition, in data set [1], the inhibition at 1 µM is -2 ± 1%, the inhibition at 10 µM was determined as 1 ± 2% and the “MSK1 inhibitory activity (in words)” value was “inactivity”.
For `Br.COc1ccccc1-c1cccc2[nH]c(N)nc12` [Compound 49g, 4-(2-Methoxyphenyl)-1H-benzo[d]imidazol-2-amine Hydrobromide], the melting point is 61 to 66 °C. In data set [1], the inhibition at 1 µM is -3 ± 5% and the inhibition at 10 µM was 39 ± 7%.
Compound `Br.Nc1nc2c(-c3cc(Cl)ccc3Cl)cccc2[nH]1` [Compound 49f, 4-(2,5-Dichlorophenyl)-1H-benzo[d]imidazol-2-amine Hydrobromide] registered a melting point of 202 to 205 °C. For the same compound, in data set [1], the inhibition at 1 µM turned out to be 6 ± 3%, the inhibition at 10 µM was 61 ± 5% and the IC50 came out at 6.8 ± 0.8 µM.
On to `N=C(N)Nc1cccc(-c2ccccc2)n1` [Compound 1a, 1-(6-phenylpyridin-2-yl)guanidine], for which, in data set [1], the inhibition at 1 µM came to 4 ± 4%, the inhibition at 10 µM turned out to be 42 ± 9% and the IC50 came out at 17.9 ± 3.9 µM. For the same compound, in data set [2], the viability at 24 h, 10 µM was 122 ± 14% and the viability at 24 h, 30 µM amounted to 103 ± 5%. In data set [3], the “cytotoxicity (in words)” value is “non-toxic”. Moreover, in the data set on IL-6 production (Homo sapiens, Fibroblast), the inhibition at 10 µM was found to be 17 ± 7% and the inhibition at 30 µM came to 60 ± 4%. Moreover, in the data set with IL-6 production (setting [4]), the IC50 was 16.3 ± 6.1 µM.
`Br.COc1ccc(-c2cccc3[nH]c(N)nc23)cc1` [Compound 49c, 4-(4-Methoxyphenyl)-1H-benzo[d]imidazol-2-amine Hydrobromide] had a melting point of 218 to 220 °C. Moreover, in data set [1], the inhibition at 1 µM was -2 ± 6% and the inhibition at 10 µM came out at 25 ± 5%.
`NC1=Nc2cccc(-c3ccccc3)c2CN1` [Compound 37a]: in data set [1], the inhibition at 1 µM is -19 ± 1%, the inhibition at 10 µM was 44 ± 1% and the IC50 was 15.8 ± 3.2 µM. Further, in data set [2], the viability at 24 h, 10 µM was 122 ± 14% and the viability at 24 h, 30 µM is 103 ± 5%. In addition, in the data set with IL-6 production (Homo sapiens, Fibroblast), the inhibition at 10 µM amounted to 18 ± 7% and the inhibition at 30 µM was determined as 23 ± 6%. Further, the IC50 in the data set with IL-6 production (setting [4]) is over 30 µM. For the same compound, in the data set with IL-6 production (read-out: Il-6 IC50, IL-1β stimulation), the IC50 is over 30 µM.
Take `N=C(N)Nc1cccc(-c2cc(Cl)ccc2Cl)n1` [Compound 1q, 1-[6-(2,5-Dichlorophenyl)pyridin-2-yl] guanidiniumtrifluoroacetate]: in data set [1], the inhibition at 1 µM worked out at 23 ± 6%, the inhibition at 10 µM was 84 ± 4% and the concentration for half-maximal inhibition (IC50) is 0.9 ± 0.1 µM. In data set [2], the viability at 24 h, 10 µM was 31 ± 19% and the viability at 24 h, 30 µM is 13 ± 1%. The “cytotoxicity (in words)” value in data set [3] is “cytotoxic”.
The compound `Br.NC1=Nc2cccc(-c3cccc(Cl)c3)c2CN1` [Compound 37d, 5-(3-Chlorophenyl)-3,4-dihydroquinazolin-2-amine Hydrobromide] gave a melting point of 228 to 230 °C. For the same compound, in data set [1], the inhibition at 1 µM was -5 ± 4% and the inhibition at 10 µM came to 10 ± 7%.
As to `Br.Nc1nc2c(-c3ccc(Cl)cc3)cccc2[nH]1` [Compound 49b, 4-(4-Chlorophenyl)-1H-benzo[d]imidazol-2-amine Hydrobromide], the melting point was 254 to 256 °C. Besides, in data set [1], the inhibition at 1 µM was -3 ± 6% and the inhibition at 10 µM turned out to be 49 ± 9%.
Regarding `N=C(N)Nc1cccc(-c2cccc(Cl)c2Cl)n1.O=C(O)C(F)(F)F` [Compound 1o, 1-[6-(2,3-Dichlorophenyl)pyridin-2-yl] guanidinium trifluoroacetate], the melting point lay in the range of 190 to 191 °C. Moreover, in data set [1], the inhibition at 1 µM turned out to be 7 ± 3%, the inhibition at 10 µM came to 71 ± 13% and the IC50 is 2.3 ± 0.3 µM.
On the same counts, the results for `N=C(N)Nc1cccc(-c2ccccc2C(F)(F)F)n1.O=C(O)C(F)(F)F` [Compound 1m, 1-[6-(2-Trifluoromethylphenyl)pyridin-2-yl] guanidinium trifluoroacetate] are 157 to 158 °C, 4 ± 2%, 38 ± 9% and 8.1 ± 1.2 µM.
With `Nc1nc2c(-c3ccccc3)cccc2[nH]1` [Compound 49a, 4-Phenyl-1H-benzo[d]imidazol-2-amine hydrobromide], in data set [1], the inhibition at 1 µM came out at 5 ± 3%, the inhibition at 10 µM turned out to be 46 ± 6% and the IC50 amounted to 3.6 ± 0.5 µM. In addition, in data set [2], the viability at 24 h, 10 µM was 93 ± 17% and the viability at 24 h, 30 µM turned out to be 91 ± 15%. In the data set with IL-6 production (Homo sapiens, Fibroblast), the inhibition at 10 µM was found to be 12 ± 4% and the inhibition at 30 µM stood at 22 ± 1%. The IC50 in the data set on IL-6 production (setting [4]) is over 30 µM.
In turn, `Br.COc1ccccc1-c1cccc2c1CNC(N)=N2` [Compound 37g, 5-(2-Methoxyphenyl)-3,4-dihydroquinazolin-2-amine Hydrobromide] registered a melting point of 226 to 229 °C. In data set [1], the inhibition at 1 µM is -14 ± 3% and the inhibition at 10 µM was -5 ± 1%.
Consider `CCCNC1=Nc2cccc(-c3ccccc3)c2CN1` [Compound 60a], for which the melting point lay in the range of 70 to 72 °C. Further, in data set [1], the inhibition at 1 µM amounted to 0%, the inhibition at 10 µM is 2 ± 3% and the “MSK1 inhibitory activity (in words)” value was “inactivity”.
